Experimental data published in the supplement of paper PMC11061612.

Legend:
Test in all cases: Bliss excess, mean over the matrix (fraction); higher = more synergy
[1] = tested on: LS-513 (Colorectal Carcinoma)
Method in brief: (§1)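 Bliss excess equals the observed combination effect minus the expected value EA + EB − EA·EB, where EA and EB are the effects of each agent alone. Combination Emax is the second-highest inhibition within the matrix. Inhibition was scaled from CellTiter-Glo 2.0 luminescence, with 0 set by vehicle wells and 1 by blank wells, after 72 hours of two-drug dosing of cells plated in 1536-well plates.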

[2] = tested on: LU-99A (Non-Small Cell Lung Carcinoma)
Method in brief: as §1

[3] = tested on: CTV-1 (T-Lymphoblastic Leukemia)
Method in brief: as §1

[4] = tested on: SW1088 (Low Grade Glioma)
Method in brief: as §1

[5] = tested on: SUIT-2 (Pancreatic Carcinoma)
Method in brief: as §1

[6] = tested on: COR-L23 (Non-Small Cell Lung Carcinoma)
Method in brief: as §1

[7] = tested on: IHH-4 (Thyroid Gland Carcinoma)
Method in brief: as §1

[8] = tested on: NCI-H2595 (Mesothelioma)
Method in brief: as §1

[9] = tested on: TE-5 (Esophageal Squamous Cell Carcinoma)
Method in brief: as §1

[10] = tested on: SW756 (Cervical Carcinoma)
Method in brief: as §1

[11] = tested on: DMS-273 (Small Cell Lung Carcinoma)
Method in brief: as §1

[12] = tested on: U-266 (Plasma Cell Myeloma)
Method in brief: as §1

[13] = tested on: DSH1 (Bladder Carcinoma)
Method in brief: as §1

[14] = tested on: HT-29 (Colorectal Carcinoma)
Method in brief: as §1

[15] = tested on: SK-N-FI (Neuroblastoma)
Method in brief: as §1

[16] = tested on: RH-1 (Ewing's Sarcoma)
Method in brief: as §1

[17] = tested on: NCI-H1299 (Non-Small Cell Lung Carcinoma)
Method in brief: as §1

[18] = tested on: NCI-H1781 (Lung Adenocarcinoma)
Method in brief: as §1

[19] = tested on: DOV13 (Ovarian Carcinoma)
Method in brief: as §1

[20] = tested on: HCC2157 (Breast Carcinoma)
Method in brief: as §1

SMILES	Bliss excess [1]	Bliss excess [2]	Bliss excess [3]	Bliss excess [4]	Bliss excess [5]	Bliss excess [6]	Bliss excess [7]	Bliss excess [8]	Bliss excess [9]	Bliss excess [10]	Bliss excess [11]	Bliss excess [12]	Bliss excess [13]	Bliss excess [14]	Bliss excess [15]	Bliss excess [16]	Bliss excess [17]	Bliss excess [18]	Bliss excess [19]	Bliss excess [20]
C[C@@H](c1ccc2nccn2c1)n1nnc2ncc(-c3cnn(C)c3)nc21 [Savolitinib] + Cc1c2c(nn1C)CSCc1cc(n(C)n1)CSc1cc(c3ccccc3c1)OCCCc1c(C(=O)O)n(C)c3c-2c(Cl)ccc13 [AZD5991] (first compound max 1 µM, 7x7, partner max 1 µM)	-0.0219	-0.0346	-0.0223	0.021	-0.0224	-0.048	-0.0182	-0.052	-0.027	-0.0692	-0.0356	-0.0655	0.0335	-0.0297	-0.0077	0.0031	-0.0519	-0.0293	-0.0518	-0.0289
COc1cccc(OCCCN)c1-c1cc(Nc2cnc(C#N)cn2)n[nH]1 [Prexasertib] + O=C(c1cc(Cc2n[nH]c(=O)c3ccccc23)ccc1F)N1CCN(C(=O)C2CC2)CC1 [Olaparib] (first compound max 1 µM, 7x7, partner max 10 µM)	-0.0666	-0.0849	-0.122	-0.0707	-0.0219	0.0116	-0.0827	-0.0053	0.0048	0.0038	-0.0009	-0.0895	-0.162	-0.0732	-0.0683	-0.0203	-0.0694	-0.0036	0.0032	-0.0113
Cc1c2c(nn1C)CSCc1cc(n(C)n1)CSc1cc(c3ccccc3c1)OCCCc1c(C(=O)O)n(C)c3c-2c(Cl)ccc13 [AZD5991] + C[C@@H]1COCCN1C2=NC(=NC(=C2)C3(CC3)[S@](=N)(=O)C)C4=C5C=CNC5=NC=C4 [AZD6738] (first compound max 1 µM, 7x7, partner max 10 µM)	0.0383	-0.0152	0.0021	-0.0048	-0.0025	-0.0121	0.0349	-0.0124	-0.0294	0.02	0.0196	0.0624	0.0241	0.0165	-0.0554	-0.0221	0.0159	0.0103	0.0005	0.0155
Cc1cc2ncnn2cc1Nc1ncc2c(n1)n(C1CCOCC1)c(=O)n2C [AZD7648] + CCN(CCO)CCCOc1ccc2c(Nc3cc(CC(=O)Nc4cccc(F)c4)[nH]n3)ncnc2c1 [AZD2811] (first compound max 10 µM, 7x7, partner max 1 µM)	-0.0033	0.0216	0.0709	-0.0312	-0.0169	-0.023	0.0429	0.0183	-0.0237	-0.0209	-0.0368	0.0204	0.0145	0.0227	0.0094	-0.0385	0.0093	0.0239	-0.0551	0.0278
CN(CCO)CC[C@H](CSc1ccccc1)Nc1ccc(S(=O)(=O)NC(=O)c2ccc(N3CCC([C@@H](O)c4ccccc4-c4ccc(Cl)cc4)CC3)cc2)cc1S(=O)(=O)C(F)(F)F [AZD4320] + C[C@@H]1COCCN1C2=NC(=NC(=C2)C3(CC3)[S@](=N)(=O)C)C4=C5C=CNC5=NC=C4 [AZD6738] (first compound max 1 µM, 7x7, partner max 10 µM)	-0.0354	-0.0464	-0.0498	-0.0732	-0.098	-0.0468	-0.0231	-0.0222	0.0256	-0.0658	-0.025	-0.0133	0.0405	-0.0073	-0.0299	0.0321	-0.016	-0.0005	-0.0448	0.0014
Cc1c2c(nn1C)CSCc1cc(n(C)n1)CSc1cc(c3ccccc3c1)OCCCc1c(C(=O)O)n(C)c3c-2c(Cl)ccc13 [AZD5991] + Cn1cnc2c(F)c(Nc3ccc(Br)cc3Cl)c(C(=O)NOCCO)cc21 [Selumetinib] (first compound max 1 µM, 7x7, partner max 3 µM)	-0.0242	-0.0363	0.036	-0.0543	-0.0135	-0.0051	-0.026	0.0101	-0.0146	-0.0058	-0.0137	0.0068	-0.0881	-0.006	-0.0042	-0.0127	-0.0039	-0.0165	0.0216	-0.0137
